SMILES strings stand for the structures. Read-outs that look alike come from different tables or passages of the source. Where only a bound is given, the exact number is not on record here.

The source of these data is patent publication US20120088791A1, “AMIDOBIPIPERIDINECARBOXYLATE M1 ALLOSTERIC AGONISTS, ANALOGS AND DERIVATIVES THEREOF, AND METHODS OF MAKING AND USING SAME” (VANDERBILT UNIVERSITY, priority 2009, published 2012).

This assay deals with T1, rM1 (Rattus norvegicus, UniProt P08482).
T1 construct: host or cells: CHO-K1
T1 sequence (P08482 1-460): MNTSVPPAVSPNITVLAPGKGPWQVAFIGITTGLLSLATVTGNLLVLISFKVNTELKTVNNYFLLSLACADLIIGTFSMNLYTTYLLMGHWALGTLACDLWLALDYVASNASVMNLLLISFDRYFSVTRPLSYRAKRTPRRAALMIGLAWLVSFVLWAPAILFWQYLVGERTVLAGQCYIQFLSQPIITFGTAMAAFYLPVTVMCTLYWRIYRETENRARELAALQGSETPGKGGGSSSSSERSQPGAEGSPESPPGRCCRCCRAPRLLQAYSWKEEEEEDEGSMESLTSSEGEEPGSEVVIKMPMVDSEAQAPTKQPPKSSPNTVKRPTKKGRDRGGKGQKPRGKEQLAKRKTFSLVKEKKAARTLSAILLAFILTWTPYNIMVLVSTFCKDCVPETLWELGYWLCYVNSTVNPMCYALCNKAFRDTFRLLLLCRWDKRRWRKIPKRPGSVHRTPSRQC
As to the kind of experiment: Calcium mobilization assay, CHO-K1 cells stably expressing rM1. In kind it is cell-based. Conditions: for Emax: RM1, read-out: Efficacy (% Max ACh); for EC50: read-out: Potency (EC50). The text has this: Cell culture and transfections. Chinese hamster ovary (CHO-K1) cells stably expressing rat (r)M1 were purchased from the American Type Culture Collection and cultured according to their indicated protocol. CHO cells stably expressing human (h)M2, hM3, and hM5 were used and described previously (Levey et al., 1991); rM4 cDNA, provided by T. I. Bonner (National Institutes of Health, Bethesda, Md.), was used to stably transfect CHO-K1 cells purchased from the American Type Culture Collection using Lipofectamine2000. To make stable hM2 and rM4 cell lines for use in calcium mobilization assays, these cells also were stably transfected with a chimeric G-protein (Gqi5) using Lipofectamine 2000. M1, hM3, and hM5 cells were grown in Ham's F-12 medium containing 10% heat-inactivated fetal bovine serum (FBS), 20 mM HEPES, and 50 μg/ml G418 sulfate. hM2-Gqi5 cells were grown in the same medium also containing 500 μg/ml Hygromycin B. Stable rM4-Gqi5 cells were grown in DMEM containing 10% heat-inactivated FBS, 20 mM HEPES, 400 μg/ml G418 sulfate, and 500 μg/ml Hygromycin B. The rat M1 Y381A orthosteric mutant receptor cDNA was generated using the Quik-Change site-directed mutagenesis kit (Stratagene) and verified by sequencing. CHO-K1 cells were stably transfected with this cDNA using Lipofectamine2000 and screened for expression based on calcium mobilization in response to the allosteric M1 agonist N-desmethylclozapine.
Calcium mobilization assays. For measurement of agonist-evoked increases in intracellular calcium, CHO-K1 cells stably expressing muscarinic receptors were plated in 100 μl of growth medium at 5×10^4 (rM1, hM3, and hM5) or 6×10^4 cells per well (rM1 Y381A, hM2, and rM4) in Costar 96-well black-walled, tissue culture (TC)-treated, clear-bottom plates (Fisher). Cells were incubated overnight at 37° C. and 5% CO2. The next day, medium was removed from the cells, and they were incubated with 50 μl of 2 μM Fluo-4 AM diluted in assay buffer [HBSS (Invitrogen) supplemented with 20 mM HEPES and 2.5 mM probenecid, pH 7.4] for 1 h at 37° C. Dye was removed and replaced with 45 μl of assay buffer. Agonists were diluted into assay buffer at a 2× concentration and applied to cells using the automated system at 19 s into the 130 s protocol. Calcium flux was measured over time as an increase in fluorescence (fold over basal) using the Flexstation plate reader (Molecular Devices).
(A change in cytosolic calcium serves as a functional read-out for many receptors and channels.)

Where [1] appears, read: Table 1, R-enantiomers, agonist-evoked calcium flux.

As usually defined, the EC50 is the concentration needed to bring the measured effect to its halfway point. As for `CCOC(=O)N1CCC(N2CCC[C@@H](NC(=O)c3ccccc3Cl)C2)CC1` [(R)-ethyl 3-(2-chlorobenzamido)-1,4′-bipiperidine-1′-carboxylate], the Emax (Table 1, R-enantiomers) turned out to be 57%. Besides, the EC50 under setting [1] is 2600 nM.
Regarding `CCOC(=O)N1CCC(N2CCC[C@@H](NC(=O)c3ccc(F)c(F)c3)C2)CC1` [(R)-ethyl 3-(3,4-difluorobenzamido)-1,4′-bipiperidine-1′-carboxylate], the Emax (Table 1, R-enantiomers) came out at 84%. For the same molecule, the half-maximal effective concentration (EC50) under setting [1] turned out to be 309 nM.
As for `CCOC(=O)N1CCC(N2CCC[C@@H](NC(=O)c3cccc(F)c3)C2)CC1` [(R)-ethyl 3-(3-fluorobenzamido)-1,4′-bipiperidine-1′-carboxylate], the Emax (Table 1, R-enantiomers) is 92%. In addition, under setting [1], the EC50 came out at 144 nM.
The like results for `CCOC(=O)N1CCC(N2CCC[C@@H](NC(=O)c3cccc(OC)c3)C2)CC1` [(R)-ethyl 3-(3-methoxybenzamido)-1,4′-bipiperidine-1′-carboxylate] were, in that order, 91% and 245 nM.
Consider `CCOC(=O)N1CCC(N2CCC[C@@H](NC(=O)c3ccc(F)cc3C)C2)CC1` [(R)-ethyl 3-(4-fluoro-2-methylbenzamido)-1,4′-bipiperidine-1′-carboxylate], for which the Emax (Table 1, R-enantiomers) came to 77%. The EC50 under setting [1] was 59 nM.
Consider `CCOC(=O)N1CCC(N2CCC[C@@H](NC(=O)c3ccc(OC)cc3)C2)CC1` [(R)-ethyl 3-(4-methoxybenzamido)-1,4′-bipiperidine-1′-carboxylate], for which the Emax (Table 1, R-enantiomers) was determined as 63%. Moreover, the EC50 under setting [1] stood at 963 nM.
For the molecule `CCOC(=O)N1CCC(N2CCC[C@@H](NC(=O)c3ccc(C)cc3)C2)CC1` [(R)-ethyl 3-(4-methylbenzamido)-1,4′-bipiperidine-1′-carboxylate], the Emax (Table 1, R-enantiomers) was 14%. The EC50 under setting [1] is 819 nM.
The like results for `CCOC(=O)N1CCC(N2CCC[C@@H](NC(=O)C3CCCCC3)C2)CC1` [(R)-ethyl 3-(cyclohexanecarboxamido)-1,4′-bipiperidine-1′-carboxylate] were, in that order, 44% and 685 nM.
The corresponding values for `CCOC(=O)N1CCC(N2CCC[C@@H](NC(=O)C3CCCC3)C2)CC1` [(R)-ethyl 3-(cyclopentanecarboxamido)-1,4′-bipiperidine-1′-carboxylate] are 35% and 5300 nM.
`CCOC(=O)N1CCC(N2CCC[C@@H](NC(=O)c3cccs3)C2)CC1` [(R)-ethyl 3-(thiophene-2-carboxamido)-1,4′-bipiperidine-1′-carboxylate]: the Emax (Table 1, R-enantiomers) came to 61%. The EC50 under setting [1] was determined as 1300 nM.
`CCOC(=O)N1CCC(N2CCC[C@H](NC(=O)c3ccccc3Cl)C2)CC1` [(S)-ethyl 3-(2-chlorobenzamido)-1,4′-bipiperidine-1′-carboxylate]: the concentration for a half-maximal effect (EC50) (Table 2, S-enantiomers) is greater than 10000 nM.
For the molecule `CCOC(=O)N1CCC(N2CCC[C@H](NC(=O)c3ccccc3C)C2)CC1` [(S)-ethyl 3-(2-methylbenzamido)-1,4′-bipiperidine-1′-carboxylate], the EC50 (Table 2, S-enantiomers) was greater than 10000 nM.
In the case of `CCOC(=O)N1CCC(N2CCC[C@H](NC(=O)c3ccc(F)c(F)c3)C2)CC1` [(S)-ethyl 3-(3,4-difluorobenzarnido)-1,4′-bipiperidine-1′-carboxylate], the EC50 (Table 2, S-enantiomers) was greater than 10000 nM.
For the molecule `CCOC(=O)N1CCC(N2CCC[C@H](NC(=O)c3cccc(F)c3)C2)CC1` [(S)-ethyl 3-(3-fluorobenzamido)-1,4′-bipiperidine-1′-carboxylate], the EC50 (Table 2, S-enantiomers) is greater than 10000 nM.
With `CCOC(=O)N1CCC(N2CCC[C@H](NC(=O)c3cccc(OC)c3)C2)CC1` [(S)-ethyl 3-(3-methoxybenzamido)-1,4′-bipiperidine-1′-carboxylate], the EC50 (Table 2, S-enantiomers) was greater than 10000 nM.
Consider `CCOC(=O)N1CCC(N2CCC[C@H](NC(=O)c3ccc(F)cc3C)C2)CC1` [(S)-ethyl 3-(4-fluoro-2-methylbenzamido)-1,4′-bipiperidine-1′-carboxylate], for which the EC50 (Table 2, S-enantiomers) is greater than 10000 nM.
On the same count and under the same terms, then `CCOC(=O)N1CCC(N2CCC[C@H](NC(=O)c3ccc(OC)cc3)C2)CC1` [(S)-ethyl 3-(4-methoxybenzamido)-1,4′-bipiperidine-1′-carboxylate], with greater than 10000 nM; and `CCOC(=O)N1CCC(N2CCC[C@H](NC(=O)c3ccc(C)cc3)C2)CC1` [(S)-ethyl 3-(4-methylbenzamido)-1,4′-bipiperidine-1′-carboxylate], with greater than 10000 nM.
With `CCOC(=O)N1CCC(N2CCC[C@H](NC(=O)C3CCCCC3)C2)CC1` [(S)-ethyl 3-(cyclohexanecarboxamido)-1,4′-bipiperidine-1′-carboxylate], the EC50 (Table 2, S-enantiomers) was greater than 10000 nM.
`CCOC(=O)N1CCC(N2CCC[C@H](NC(=O)C3CCCC3)C2)CC1` [(S)-ethyl 3-(cyclopentanecarboxamido)-1,4′-bipiperidine-1′-carboxylate]: under “Table 2, S-enantiomers”, the half-maximal effective concentration (EC50) was greater than 10000 nM.
Regarding `CCOC(=O)N1CCC(N2CCC[C@H](NC(=O)c3cccs3)C2)CC1` [(S)-ethyl 3-(thiophene-2-carboxamido)-1,4′-bipiperidine-1′-carboxylate], the EC50 (Table 2, S-enantiomers) was greater than 10000 nM.
On the same count and under the same terms, as for `CCOC(=O)N1CCC(N2CCC[C@H](NC(=O)c3ccccc3)C2)CC1` [(S)-ethyl 3-benzamido-1,4′-bipiperidine-1′-carboxylate], the figure is greater than 10000 nM.
